Results published in article PMC11892739, “Site-specific molecular glues for the 14-3-3/Tau pS214 protein–protein interaction via reversible covalent imine tethering” (RSC Medicinal Chemistry, 2025).

Target: T1, 14-3-3γ/Tau pS214 complex (Homo sapiens, UniProt P61981)
T1 construct: made in house; host or cells: NiCo21 (DE3) E. coli
Test: Differential scanning fluorimetry of 14-3-3γ with Tau pS214 peptide and compounds
Format: binding
Conditions: compound 30 equiv., Tau pS214 10 equiv.
Procedure: Fig. 5 a Phospho-site selective 14-3-3/Tau PPI stabilization. b SF250μM of selected compounds for stabilization of the 14-3-3γ complex with Tau pS214 and Tau pS324 peptides based on the internal DMSO reference. Mean of two separately performed experiments (see ESI ^† Fig. S9 for the corresponding binding curves). c Differential scanning fluorimetry assay results. Identified melting temperatures (Tm) of 14-3-3γ in the presence of the Tau pS214 or pS324 peptide and compounds 1 and 18. […]
chromatography (HisTrap high performance cartridges, Cytiva). […] Dialyzed protein was concentrated to ∼40 mg/mL, analyzed by Q -Tof LC/MS, and aliquots were flash -frozen for storage at −80 °C. […]
DSF was performed using 40 µl samples containing 2.5 µM 14 -3-3ζ, 25 µM Tau peptide (Tau pS2, Tau pS214 or Tau pS324), […] (1% DMSO) and 5x ProteoOrange (Lumiprobe, 5000x stock in DMSO) in 10 mM HEPES, 150 mM NaCl, 50 µM TCEP (pH 7.4). […] Fluorescence intensity was determined using excitation ( λem=525/20 nm) and emission ( λex=570/20 nm) filters.
Based on these melting curves, the negative derivative melting curve is obtained from which the melting temperature Tm was determined. All described melting temperatures are based on two or three independent experiments, from which the average and standard deviations were determined. […]

T1 sequence (P61981 whole entry, other chains not shown): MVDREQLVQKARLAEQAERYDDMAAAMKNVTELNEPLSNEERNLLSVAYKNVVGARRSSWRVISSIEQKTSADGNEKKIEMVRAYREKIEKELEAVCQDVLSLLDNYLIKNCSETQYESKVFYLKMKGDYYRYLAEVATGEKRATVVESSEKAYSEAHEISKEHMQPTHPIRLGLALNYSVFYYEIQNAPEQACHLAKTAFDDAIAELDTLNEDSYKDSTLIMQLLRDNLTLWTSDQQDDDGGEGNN

increase in 14-3-3γ melting temperature on addition of compound, Tau pS214 complex [°C]	Compound
~1.7	CCc1ccc(-c2nccn2-c2ccc(C=O)c(Br)c2)cc1 [Compound 18]
~0.6	O=Cc1ccc(-n2ccnc2-c2ccccc2)cc1Br [Compound 1]
